Source: publication PMC5458211, “Mitochondrial VDAC1-based peptides: Attacking oncogenic properties in glioblastoma” (Oncotarget, 2017)

System: GSC markers
Experiment: Expression of GSC markers in treated tumors (IHC, immunoblot)
Type: in vivo, human U-87MG in nude mice
Settings: treated tumors vs PBS/DMSO
Procedure: Sections were also hematoxylin-stained and visualized by microscopy. B. Tissue lysates obtained from controls and several TF-D-LP4-TTs were immunoblotted for Nestin, Sox2, NGFR, CD133, and Klf4. C. Quantitative analysis of immunoblots is shown (n=2-4). D. Immunoblot analysis of, Klf4, Sox2, Nestin and Musashi expression in U-87MG and G7 cell lines, using specific antibodies. E. Quantitative analysis of immunoblots. […] G. G7 (·) and U-87MG cells (○) (2×10^5) were incubated for 3 h with the DMSO (0.15%) or with the indicated concentration of Retro-Tf-D-LP4 peptide in serum-free growth medium at 37°C and then subjected to FITC-Annexin V/PI staining and flow cytometry analysis. H. Representative FACS analysis of DMSO- (left) and 5 μM of Retro-Tf-D-LP4- (right) treated G7 or U-87MG cells.
Formalin-fixed, paraffin-embedded sections of control and peptide-TTs were hematoxylin-eosin stained, probed with appropriate antibodies via IHC staining or immunoblotting of cells and tissue extracts.
PLGA encapsulation of the VDAC1-based minutes using an UltraMicroPump III (World Precision peptide Retro-Tf-D-LP4 Instruments, Sarasota, FL). After infusion, the needle was left in place for 1 minute before slow withdrawal. The burr
Retro-Tf-D-LP4-loaded PLGA complexes were hole was sealed using sterile bone wax, and the wound prepared by the solvent displacement method with some was closed with 5.0 nylon surgical suture. All surgical modifications, as previously reported [2 3]. Twenty procedures were performed under sterile conditions.
100% DMSO and then diluted 20-fold with sterile DDW into three groups (6 animals/group) and treated every to reach a concentration of 25 mg/ml in a final DMSO third day with DMSO (1.44%), Retro-Tf-D-LP4 (10 concentration of 5%. PLGA (50 mg) was dissolved in mg/kg) or Retro-Tf-D-LP4 (10 mg/kg) encapsulated by acetone (1 ml). Then, 105 µl of peptide were added to the PLGA. Mice were subjected to MRI (at days 20 and 29), PLGA-acetone solution. The resulting peptide-PLGA- sacrificed, and brains were excised and processed for acetone mixture was added drop-wise (0.5 ml/min) into IHC. Tumor volume was analyzed using VivoQuant 2.10 10 ml of aqueous solution containing 1% PVA (w/v). The software. These experimental protocols were approved by mixtures were stirred continuously at room temperature the Institutional Animal Care and Use Committee of Ben-until complete evaporation of the organic solvent. The Gurion University. nanoparticles were centrifuged at 15,000g (4 °C for 20 min) and the pellet was re-suspended in sterile DDW and Gel electrophoresis and immunoblotting washed two times. The resulting pellet was mixed with HBSS solution. Cells or tumor tissue were lysed using lysis buffer (50 mM Tris-HCl, pH 7.5, 150 mM NaCl, 1
Xenograft and intracranial-orthotopic mouse mM EDTA, 1.5 mM MgCl2, 10% glycerol, 1% Triton models X-100, supplemented with a protease inhibitor cocktail
(Calbiochem, UK). Cell lysates were then centrifuged at U-87MG glioblastoma cells (3 x106) were inoculated 600xg (10 min at 4°C) and samples (10-40 μg of protein) s.c. into the hind leg ﬂanks of athymic eight-week old were subjected to SDS-PAGE and immunoblotting male nude mice (Envigo). Thirteen days post-inoculation, using various primary antibodies (sources and dilutions tumor volume was measured and calculated (100-130 as detailed in supplementary Table 2), followed by mm3) and mice were randomized into three groups (5 the appropriate HRP-conjugated secondary antibodies mice/group). Each treatment substance was injected into (i.e., anti-mouse, anti-rabbit or anti-goat). Blots the established s,c. tumors using PBS containing 0.26% were developed using enhanced chemiluminescence DMSO or peptide in PBS, 0.26% DMSO/20 μM). The (Biological Industries). Band intensities were analyzed xenografts were injected 20 µl per tumor (2 points) every by densitometry using Multi Gauge software (Fujifilm) […]
two days. […]

CC[C@H](C)[C@H](NC(=O)[C@H](C)NC(=O)[C@@H](N)Cc1c[nH]cn1)C(=O)N[C@@H](Cc1ccc(O)cc1)C(=O)N1CCC[C@H]1C(=O)N[C@@H](CCCNC(=N)N)C(=O)N[C@@H](Cc1c[nH]cn1)C(=O)N[C@@H](CO)C(=O)N[C@@H](Cc1c[nH]c2ccccc12)C(=O)N[C@H](C(=O)N[C@@H](Cc1c[nH]c2ccccc12)C(=O)N[C@@H](CCC(=O)O)C(=O)N[C@H](CCCCN)C(=O)N[C@H](CCCCN)C(=O)N[C@H](CC(C)C)C(=O)N[C@H](CCC(=O)O)C(=O)N[C@@H](C(=O)N[C@H](C)C(=O)N[C@@H](C(=O)N[C@H](CC(N)=O)C(=O)N[C@H](CC(C)C)C(=O)N[C@H](C)C(=O)N[C@H](Cc1c[nH]c2ccccc12)C(=O)N[C@@H](C(=O)N[C@H](C)C(=O)NCC(=O)N[C@H](CC(N)=O)C(=O)N[C@H](CO)C(=O)N[C@H](CC(N)=O)C(=O)N[C@@H](CCCCN)C(=O)N[C@@H](Cc1c[nH]c2ccccc12)C(=O)N[C@H](C(=O)N[C@@H](Cc1c[nH]c2ccccc12)C(=O)N[C@@H](CCCCN)C(=O)O)[C@@H](C)O)[C@H](C)O)C(C)C)[C@H](C)O)[C@@H](C)O [Tf-D-LP4]
markedly lower: CD133 expression | Klf4 expression | NGFR expression | Nestin expression | S100B expression | Sox2 expression
